Assay results as given in ChEMBL document CHEMBL1128955, “Benzolactam growth hormone secretagogues: Replacement of the C-3 amide bond in L-692,429” (1996).
Calls of active or inactive are those of the source. The rule behind the calls is not given here.

Organism: Rattus norvegicus
Assay: In vitro growth hormone release in rat pituitary cells
Type: functional
Conditions: Pituitary gland cell, read-out: ED50 (the source's name)

| SMILES | EC50 [µM] |
| --- | --- |
| CN(C(=O)CC(C)(C)N)[C@@H]1CCc2ccccc2N(Cc2ccc(-c3ccccc3-c3nn[nH]n3)cc2)C1=O | 7 |
| CC(C)(N)CCSC1CCc2ccccc2N(Cc2ccc(-c3ccccc3-c3nn[nH]n3)cc2)C1=O (configuration not stated) | 6 |
| C[C@H](O)CNC(C)(C)CC(=O)N[C@@H]1CCc2ccccc2N(Cc2ccc(-c3ccccc3-c3nn[nH]n3)cc2)C1=O | 0.007 |
| CC(C)(N)CCC(=O)N[C@@H]1CCc2ccccc2N(Cc2ccc(-c3ccccc3-c3nn[nH]n3)cc2)C1=O | 3 |
| CC(C)(N)CCCSC1CCc2ccccc2N(Cc2ccc(-c3ccccc3-c3nn[nH]n3)cc2)C1=O (configuration not stated) | 7 |
| CC(C)(N)CNC(=O)N[C@@H]1CCc2ccccc2N(Cc2ccc(-c3ccccc3-c3nn[nH]n3)cc2)C1=O | 0.1 |
| CC(C)(N)CNC1CCc2ccccc2N(Cc2ccc(-c3ccccc3-c3nn[nH]n3)cc2)C1=O (configuration not stated) | 1 |
| CC(C)(N)CC(=O)N[C@@H]1CCc2ccccc2N(Cc2ccc(-c3ccccc3-c3nn[nH]n3)cc2)C1=O | 0.06 |
| C[C@@H](O)CNC(C)(C)CC(=O)N[C@@H]1CCc2ccccc2N(Cc2ccc(-c3ccccc3-c3nn[nH]n3)cc2)C1=O [L-692585] | 0.003 |
| C[C@H](O)CNC(C)(C)CNC(=O)N[C@@H]1CCc2ccccc2N(Cc2ccc(-c3ccccc3-c3nn[nH]n3)cc2)C1=O | 2.5 |
| CC(C)(N)CC(=O)NC1CCc2ccccc2N(Cc2ccc(-c3ccccc3-c3nn[nH]n3)cc2)C1=O [L-158432] | 0.12 |
| CC(C)(N)C(=O)N[C@@H]1CCc2ccccc2N(Cc2ccc(-c3ccccc3-c3nn[nH]n3)cc2)C1=O | 0.03 |

Organism: Rattus norvegicus
Assay: In vitro growth hormone release in rat pituitary cells at 1 uM; Weakly active
Type: functional, cell-based
Conditions: Pituitary gland cell

| SMILES | Growth hormone release at 1 uM (qualitative) |
| --- | --- |
| CC(C)(N)CCNC1CCc2ccccc2N(Cc2ccc(-c3ccccc3-c3nn[nH]n3)cc2)C1=O (configuration not stated) | Weak activity |
| C[C@@H](O)CNC(C)(C)CNC(=O)N[C@@H]1CCc2ccccc2N(Cc2ccc(-c3ccccc3-c3nn[nH]n3)cc2)C1=O | Weak activity |
| CC(C)(N)NC(=O)N[C@@H]1CCc2ccccc2N(Cc2ccc(-c3ccccc3-c3nn[nH]n3)cc2)C1=O | Weak activity |
| CC(C)(N)CC(=O)OC1CCc2ccccc2N(Cc2ccc(-c3ccccc3-c3nn[nH]n3)cc2)C1=O (configuration not stated) | Weak activity |

Organism: Rattus norvegicus
Assay: In vitro growth hormone release in rat pituitary cells at 10 uM; inactive
Type: functional, cell-based
Conditions: Pituitary gland cell

| SMILES | ED50 |
| --- | --- |
| CC(C)(N)CC(=O)N(Cc1ccccc1)[C@@H]1CCc2ccccc2N(Cc2ccc(-c3ccccc3-c3nn[nH]n3)cc2)C1=O | inactive |
